# Measured values published in patent publication US20160130278A1 (TAISHO PHARMACEUTICAL CO., LTD, priority 2013, published 2016).
# Target: T1, human type 1 glycine transporter (GlyT1) (Homo sapiens, UniProt P48067)
# T1 construct: T98G cells (glioma cells) expressing human type 1 glycine transporter (GlyT1) were used
# T1 sequence (P48067 1-706): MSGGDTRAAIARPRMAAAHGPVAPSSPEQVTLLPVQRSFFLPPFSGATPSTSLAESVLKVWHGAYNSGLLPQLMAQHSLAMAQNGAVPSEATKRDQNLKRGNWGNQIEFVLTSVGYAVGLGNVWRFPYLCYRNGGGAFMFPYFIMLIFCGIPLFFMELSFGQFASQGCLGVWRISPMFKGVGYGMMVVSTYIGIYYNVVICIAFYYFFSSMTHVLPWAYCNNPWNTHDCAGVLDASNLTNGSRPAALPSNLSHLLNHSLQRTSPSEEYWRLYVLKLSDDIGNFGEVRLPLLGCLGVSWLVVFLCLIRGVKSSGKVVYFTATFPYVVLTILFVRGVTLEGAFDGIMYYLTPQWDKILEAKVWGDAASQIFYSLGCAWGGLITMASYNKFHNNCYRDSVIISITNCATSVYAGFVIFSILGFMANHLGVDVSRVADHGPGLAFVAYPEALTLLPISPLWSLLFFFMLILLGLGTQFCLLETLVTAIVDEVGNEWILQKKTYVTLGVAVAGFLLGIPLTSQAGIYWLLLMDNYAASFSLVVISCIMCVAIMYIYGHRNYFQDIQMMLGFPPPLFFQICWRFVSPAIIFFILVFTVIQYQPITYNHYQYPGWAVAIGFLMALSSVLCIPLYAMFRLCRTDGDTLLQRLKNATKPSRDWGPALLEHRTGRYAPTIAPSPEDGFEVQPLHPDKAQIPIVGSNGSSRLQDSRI
# Test: Glycine uptake inhibition experiment ([3H]glycine uptake)
# Format: cell-based
# Conditions: GlyT1
# In short: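 T98G glioma cells expressing human GlyT1 were pretreated 10 min with compound in HEPES buffer pH 7.4 (0.2% BSA), then incubated with compound plus 250 nM final [3H]glycine for 15 min at room temperature. Intracellular radioactivity was counted after NaOH lysis; 10 μM ALX5407 defined non-specific uptake. IC50 came from 10^−9–10^−5 M curves.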
row,SMILES,IC50
1,"O=C(NC(c1cc(F)ccc1Cl)[C@]1(O)CC[C@@H](F)CC1)c1nccc(C(F)(F)F)c1Cl (single isomer, unassigned) [Compound 374, 3-chloro-N-[(2-chloro-5-fluorophenyl)(cis-4-fluoro-1-hydroxycyclohexyl)methyl]-4-(trifluoromethyl)pyridine-2-carboxamide]",170 nM
2,"CCn1cc(-c2cccc(C(NC(=O)c3cccc(C(F)(F)F)c3Cl)C3(O)CCC(F)(F)CC3)c2)cn1 (single isomer, unassigned) [Compound 121, 2-chloro-N-{(4,4-difluoro-1-hydroxycyclohexyl)[3-(1-ethyl-1H-pyrazol-4-yl)phenyl]methyl}-3-(trifluoromethyl)benzamide]",7400 nM
3,"O=C(NC(c1cccc(F)c1Cl)[C@]1(O)CC[C@@H](F)CC1)c1nc(C(F)(F)F)ccc1Cl (single isomer, unassigned) [Compound 290, 3-chloro-N-[(2-chloro-3-fluorophenyl)(cis-4-fluoro-1-hydroxycyclohexyl)methyl]-6-(trifluoromethyl)pyridine-2-carboxamide]",900 nM
4,"O=C(NC(c1cccc(F)c1)C1(O)CCCCC1)c1nccc(C(F)(F)F)c1Cl (single isomer, unassigned) [Compound 68, 3-chloro-N-[(3-fluorophenyl)(1-hydroxycyclohexyl)methyl]-4-(trifluoromethyl)pyridine-2-carboxamide]",2600 nM
5,"O=C(NC(c1cccc(F)c1Cl)[C@]1(O)CC[C@@H](F)CC1)c1c(Cl)nc2ccccn12 (single isomer, unassigned) [Compound 262, 2-chloro-N-[(2-chloro-3-fluorophenyl)(cis-4-fluoro-1-hydroxycyclohexyl)methyl]imidazo[1,2-a]pyridine-3-carboxamide]",8800 nM
6,"O=C(NC(c1cccc(Cl)c1Cl)C1(O)CCC(F)(F)CC1)c1nccc(C(F)(F)F)c1Cl (single isomer, unassigned) [Compound 137, 3-chloro-N-[(2,3-dichlorophenyl)(4,4-difluoro-1-hydroxycyclohexyl)methyl]-4-(trifluoromethyl)pyridine-2-carboxamide]",62 nM
7,"O=C(NC(c1ccc(F)c(F)c1F)C1(O)CCC(F)(F)CC1)c1nccc(C(F)(F)F)c1Cl (centres unmarked) [Compound 170, 3-chloro-N-[(4,4-difluoro-1-hydroxycyclohexyl)(2,3,4-trifluorophenyl)methyl]-4-(trifluoromethyl)pyridine-2-carboxamide]",630 nM
8,"O=C(NC(c1cccc(F)c1Cl)[C@]1(O)CC[C@@H](F)CC1)c1ccc(C(F)(F)F)nc1Cl (single isomer, unassigned) [Compound 304, 2-chloro-N-[[2-chloro-3-fluorophenyl)(cis-4-fluoro-1-hydroxycyclohexyl)methyl]-6-(trifluoromethyl)pyridine-3-carboxamide]",290 nM
9,"O=C(NC(c1ccccc1)C1(O)CCCC1)c1nccc(C(F)(F)F)c1Cl (centres unmarked) [Compound 12, 3-chloro-N-[(1-hydroxycyclopentyl)(phenyl)methyl]-4-(trifluoromethyl)pyridine-2-carboxamide]",480 nM
10,"N#Cc1ccc(-c2cccc(C(NC(=O)c3cccc(C(F)(F)F)c3Cl)C3(O)CCCC3)c2)cc1 (centres unmarked) [Compound 5, 2-chloro-N-[(4′-cyanobiphenyl-3-yl)(1-hydroxycyclopentyl)methyl]-3-(trifluoromethyl)benzamide]",880 nM
11,"CS(=O)(=O)c1ccc(Cl)cc1C(=O)NC(c1cccc(F)c1Cl)[C@]1(O)CC[C@@H](F)CC1 (single isomer, unassigned) [Compound 364, 5-chloro-N-[(2-chloro-3-fluorophenyl)(cis-4-fluoro-1-hydroxycyclohexyl)methyl]-2-(methylsulfonyl)benzamide]",530 nM
12,"O=C(NC(c1cccc(Cl)c1)C1(O)CCCCC1)c1nccc(C(F)(F)F)c1Cl (single isomer, unassigned) [Compound 230, 3-chloro-N-[(3-chlorophenyl)(1-hydroxycyclohexyl)methyl]-4-(trifluoromethyl)pyridine-2-carboxamide]",2800 nM
13,"O=C(NC(c1cccc(F)c1Cl)[C@]1(O)CC[C@@H](F)CC1)c1cccc(C(F)(F)F)c1-n1nccn1 (single isomer, unassigned) [Compound 379, N-[(2-chloro-3-fluorophenyl)(cis-4-fluoro-1-hydroxycyclohexyl)methyl]-2-(2H-1,2,3-triazol-2-yl)-3-(trifluoromethyl)benzamide]",790 nM
14,"CCn1cc(-c2cccc(C(NC(=O)c3cccc(Cl)c3Cl)C3(O)CCC(F)(F)CC3)c2)cn1 (centres unmarked) [Compound 119, 2,3-dichloro-N-{(4,4-difluoro-1-hydroxycyclohexyl)[3-(1-ethyl-1H-pyrazol-4-yl)phenyl]methyl}benzamide]",470 nM
15,"O=C(NC(c1cccc(Cl)c1F)C1(O)CCC(F)(F)CC1)c1cc(C(F)(F)F)ncc1Cl (single isomer, unassigned) [Compound 219, 5-chloro-N-[(3-chloro-2-fluorophenyl)(4,4-difluoro-1-hydroxycyclohexyl)methyl]-2-(trifluoromethyl)pyridine-4-carboxamide]",920 nM
16,"O=C(NC(c1cccc(F)c1Cl)[C@]1(O)CC[C@@H](F)CC1)c1nccc(C(F)F)c1Cl (single isomer, unassigned) [Compound 241, 3-chloro-N-[(2-chloro-3-fluorophenyl)(cis-4-fluoro-1-hydroxycyclohexyl)methyl]-4-(difluoromethyl)pyridine-2-carboxamide]",110 nM
17,"O=C(NC(c1ccccc1F)C1(O)CCCC1)c1nccc(C(F)(F)F)c1Cl (single isomer, unassigned) [Compound 61, 3-chloro-N-[(2-fluorophenyl)(1-hydroxycyclopentyl)methyl]-4-(trifluoromethyl)pyridine-2-carboxamide]",3000 nM
18,"O=C(NC(c1cccc(Cl)n1)C1(O)CCC(F)(F)CC1)c1cc(C(F)(F)F)ncc1Cl (single isomer, unassigned) [Compound 353, 5-chloro-N-[(6-chloropyridin-2-yl)(4,4-difluoro-1-hydroxycyclohexyl)methyl]-2-(trifluoromethyl)pyridine-4-carboxamide]",150 nM
19,"O=C(NC(c1cccc(Cl)n1)C1(O)CCC(F)(F)CC1)c1ccc(C(F)(F)F)nc1Cl (single isomer, unassigned) [Compound 356, 2-chloro-N-[(6-chloropyridin-2-yl)(4,4-difluoro-1-hydroxycyclohexyl)methyl]-6-(trifluoromethyl)pyridine-3-carboxamide]",250 nM
20,"COc1ccccc1C(NC(=O)c1nccc(C(F)(F)F)c1Cl)C1(O)CCCC1 (centres unmarked) [Compound 50, 3-chloro-N-[(1-hydroxycyclopentyl)(2-methoxyphenyl)methyl]-4-(trifluoromethyl)pyridine-2-carboxamide]",540 nM
21,"O=C(NC(c1cccc(-c2cccnc2)c1)C1(O)CCC(F)(F)CC1)c1nccc(C(F)(F)F)c1Cl (centres unmarked) [Compound 146, 3-chloro-N-{(4,4-difluoro-1-hydroxycyclohexyl)[3-(pyridin-3-yl)phenyl]methyl}-4-(trifluoromethyl)pyridine-2-carboxamide]",140 nM
22,"O=C(NC(c1cccc(Cl)n1)C1(O)CCCCC1)c1nccc(C(F)(F)F)c1Cl (single isomer, unassigned) [Compound 384, 3-chloro-N-[(6-chloropyridin-2-yl)(1-hydroxycyclohexyl)methyl]-4-(trifluoromethyl)pyridine-2-carboxamide]",9.4 nM
23,"CCn1cc(-c2cccc(C(NC(=O)c3ccc(F)cc3C(F)(F)F)C3(O)CCC(F)(F)CC3)c2)cn1 (single isomer, unassigned) [Compound 215, N-{(4,4-difluoro-1-hydroxycyclohexyl)[3-(1-ethyl-1H-pyrazol-4-yl)phenyl]methyl}-4-fluoro-2-(trifluoromethyl)benzamide]",210 nM
24,"O=C(N[C@@H](c1cccc(F)c1)C1(O)CCC(F)(F)CC1)c1nccc(C(F)(F)F)c1Cl (single isomer, unassigned) [Compound 233, 3-chloro-N-[(4,4-difluoro-1-hydroxycyclohexyl)(3-fluorophenyl)methyl]-4-(trifluoromethyl)pyridine-2-carboxamide]",120 nM
25,"O=C(NC(c1cccnc1)[C@]1(O)CC[C@@H](F)CC1)c1nccc(C(F)(F)F)c1Cl (single isomer, unassigned) [Compound 265, 3-chloro-N-[(cis-4-fluoro-1-hydroxycyclohexyl)(pyridin-3-yl)methyl]-4-(trifluoromethyl)pyridine-2-carboxamide]",890 nM
26,"O=C(NC(c1cc(Cl)ccn1)[C@]1(O)CC[C@@H](F)CC1)c1cccc(C(F)(F)F)c1Cl (single isomer, unassigned) [Compound 331, 2-chloro-N-[(4-chloropyridin-2-yl)(cis-4-fluoro-1-hydroxycyclohexyl)methyl]-3-(trifluoromethyl)benzamide]",88 nM
